In ChEMBL document CHEMBL1151492, “elastase inhibitors containing conformationally restricted lactams as P3-P2 dipeptide replacements” (Bioorg Med Chem Lett, 1993):
Where “and” joins values, the source holds several entries; their conditions need not be identical. Identical values can stand only once.

Tests used:
Neutrophil elastase = biological target: T1, Neutrophil elastase (Homo sapiens, UniProt P08246); assay: In vitro inhibitory activity against human leukocyte elastase
T1 sequence (P08246 whole entry): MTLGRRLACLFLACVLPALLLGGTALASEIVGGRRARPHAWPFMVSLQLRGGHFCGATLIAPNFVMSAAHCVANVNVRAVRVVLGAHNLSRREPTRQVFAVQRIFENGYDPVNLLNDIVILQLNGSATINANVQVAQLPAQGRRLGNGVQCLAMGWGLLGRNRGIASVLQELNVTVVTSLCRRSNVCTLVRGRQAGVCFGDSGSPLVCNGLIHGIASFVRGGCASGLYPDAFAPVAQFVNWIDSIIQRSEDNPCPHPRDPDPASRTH

Cricetinae gen. sp. = assay: Effective dose required to inhibit elastase induced pulmonary hemorrhage (EPH) lung model in hamsters; assay type: functional, Cricetulus griseus

Row | SMILES | IC50 (Neutrophil elastase) | ED50 (Cricetinae gen. sp.) [µM]
1 | CC(C)C(NC(=O)CN1CCCC[C@H](NC(=O)c2ccc(C(=O)NS(=O)(=O)c3ccc(Cl)cc3)cc2)C1=O)C(=O)C(F)(F)F (stereo not given in full) | > 5 µM | –
2 | CC(C)C(NC(=O)CN1CCC[C@H](NC(=O)c2ccc(C(=O)NS(=O)(=O)c3ccc(Cl)cc3)cc2)C1=O)C(=O)C(F)(F)F (stereo not given in full) | > 5 µM | –
3 | CC(C)C(NC(=O)CN(C(=O)[C@@H](NC(=O)c1ccc(C(=O)NS(=O)(=O)c2ccc(Cl)cc2)cc1)C(C)C)C1Cc2ccccc2C1)C(=O)C(F)(F)F (stereo not given in full) | – | 4.8
4 | CC(C)C(NC(=O)CN1C(=O)[C@@H](NC(=O)c2ccc(C(=O)NS(=O)(=O)c3ccc(Cl)cc3)cc2)C[S+]([O-])c2ccccc21)C(=O)C(F)(F)F (stereo not given in full) | 6.8 µM and 6.2 µM | –
5 | CC(C)C(NC(=O)CN1CC[C@H](NC(=O)c2ccc(C(=O)NS(=O)(=O)c3ccc(Cl)cc3)cc2)C1=O)C(=O)C(F)(F)F (stereo not given in full) | > 5 µM | –
